From patent US20250122155A1, “NOVEL INDOLE DERIVATIVE, PHARMACEUTICAL COMPOSITION COMPRISING SAME, AND USE THEREOF” (MITOIMMUNE THERAPEUTICS INC., priority 2021, published 2025)

Key:
[1] = tested on: PC-12 cells; experiment: Cell death protective effect in adrenal cells against Erastin, glutamate and RSL3 (LDH); type: cell-based, rat; conditions: 24 hours
Description: (§1) In order to identify the protective effect on adrenal cells, PC-12 cells were divided into 96-well plates by 1×10^4 and cultured for 18 to 24 hours. The compounds of Examples were diluted to final concentrations of 0.1 and 1.0 μM in Erastin, 0.01 and 0.1 in glutamate, and 0.3 and 3.0 μM in RSL3, treated in each well, and incubated for 15 to 20 minutes. Erastin, glutamate, and RSL3 were treated to have final concentrations of 1 μM, 10 mM, and 0.3 μM, respectively, and cultured for 24 hours. In order to identify the protective effect of each compound, the degree of LDH extracellular secretion was measured using cytotoxicity LDH assay kit [Dojindo; CK12]. Briefly, at the time when the treatment of the cells with Erastin, glutamate, and RSL3 for 24 hours is completed, the supernatants containing the cells are taken by 70 μL and transferred to a new 96-well plate. The assay buffer included in the kit is added in an amount of 70 μL/well (the same amount as the sample) thereto, and then the plate is wrapped with a foil and the reaction is performed at room temperature for 15 minutes. After observing the changed color of the sample, the stop solution was added in an amount of 35 µL/well thereto, and then the 0 inhibition value was calculated by measuring the absorbance value at a wavelength of 490 nm using an iD3 spectrophotometer.

[2] = tested on: H9C2 cells; experiment: Cell death protective effect in cardiac myocytes against Erastin, glutamate and RSL3 (LDH); type: cell-based, rat; conditions: 24 hours
Description: as §1, with “on cardiac” for “on adrenal”, “cells, H9C2” for “cells, PC-12”, “and 1 μM,” for “and 1.0 μM in Erastin, 0.01 and 0.1 in glutamate, and 0.3 and 3.0 μM in RSL3,”, “μM, 25” for “μM, 10”, “and 0.5” for “and 0.3”, “minutes.” for “minutes. After observing the changed color of the sample, the stop solution was added in an amount of 35 µL/well thereto, and then the 0 inhibition value was calculated by measuring the absorbance value at a wavelength of 490 nm using an iD3 spectrophotometer.”

[3] = PC-12, Erastin 1 μM, compound 0.1 μM
[4] = PC-12, Erastin 1 μM, compound 1.0 μM
[5] = PC-12, Glutamate 10 mM, compound 0.01 μM
[6] = PC-12, Glutamate 10 mM, compound 0.1 μM
[7] = PC-12, RSL3 0.3 μM, compound 0.3 μM
[8] = PC-12, RSL3 0.3 μM, compound 3.0 μM
[9] = H9C2, Erastin 1 μM, compound 0.1 μM
[10] = H9C2, Erastin 1 μM, compound 1.0 μM
[11] = H9C2, Glutamate 25 mM, compound 0.1 μM
[12] = H9C2, Glutamate 25 mM, compound 1.0 μM
[13] = H9C2, RSL3 0.5 μM, compound 0.1 μM
[14] = H9C2, RSL3 0.5 μM, compound 1.0 μM

SMILES | inhibition (%) [1, 3] | inhibition (%) [1, 4] | inhibition (%) [1, 5] | inhibition (%) [1, 6] | inhibition (%) [1, 7] | inhibition (%) [1, 8] | inhibition (%) [2, 9] | inhibition (%) [2, 10] | inhibition (%) [2, 11] | inhibition (%) [2, 12] | inhibition (%) [2, 13] | inhibition (%) [2, 14]
COCCOCc1cc(NC2CCOCC2)c2[nH]c(-c3ccccc3)cc2c1 [Example 1, 5-(2-methoxyethoxymethyl)-2-phenyl-N-tetrahydropyran-4-yl-1H-indol-7-amine] | 100% | 100% | 53% | 98% | 100% | 100% | 100% | 100% | 96% | 97% | 100% | 98%
COCCOCc1cc(NCC2CCOCC2)c2[nH]c(-c3ccccc3)cc2c1 [Example 4, 5-2(methoxyethoxymethyl)-2-phenyl-N-(tetrahydropyran-4-ylmethyl)-1H-indol-7-amine] | 100% | 100% | 53% | 96% | 100% | 100% | 100% | 100% | 97% | 96% | 97% | 96%
COCCOCc1cc(NC2CCN(C(C)=O)CC2)c2[nH]c(-c3ccccc3)cc2c1 [Example 30, 1-[4-[[5-(2-methoxyethoxymethyl)-2-phenyl-1H-indol-7-yl]amino]piperidyl]-1-ethanone] | 86% | 100% | 33% | 95% | 100% | 100% | 0% | 100% | 90% | 98% | 0% | 96%
CCOCCOCc1cc(NC2CCCC2)c2[nH]c(-c3ccccc3)cc2c1 [Example 36, N-cyclopentyl-5-(2-ethoxyethoxymethyl)-2-phenyl-1H-indol-7-amine] | 100% | 100% | 61% | 95% | 100% | 100% | 100% | 100% | 99% | 97% | 98% | 99%
COCCOCCOCc1cc(NC2CCCC2)c2[nH]c(-c3ccccc3)cc2c1 [Example 39, N-cyclopentyl-5-[2-(2-methoxyethoxy)ethoxymethyl]-2-phenyl-1H-indol-7-amine] | 100% | 100% | 52% | 97% | 100% | 100% | 100% | 100% | 96% | 96% | 96% | 96%
COCCOCc1cc(NCc2ccncc2)c2[nH]c(-c3ccccc3)cc2c1 [Example 45, 5-(2-methoxyethoxymethyl)-2-phenyl-N-(4-pyridylmethyl)-1H-indol-7-amine] | 100% | 100% | 57% | 100% | 100% | 100% | 100% | 100% | 98% | 96% | 99% | 97%
COCCOCc1cc(NC2CCOCC2)c2[nH]cc(C)c2c1 [Example 50, 5-(2-methoxyethoxymethyl)-3-methyl-N-tetrahydropyran-4-yl-1H-indol-7-amine] | 41% | 68% | 16% | 25% | 0% | 100% | 16% | 18% | 0% | 49% | 7% | 4%
COCCOCc1cc(NC2CCNCC2)c2[nH]c(-c3ccccc3)cc2c1 [Example 64, 5-((2-methoxyethoxy)methyl)-2-phenyl-N-(piperidin-4-yl)-1H-indol-7-amine] | 100% | 100% | 39% | 97% | 78% | 100% | 100% | 100% | 97% | 97% | 90% | 95%
CCOC(=O)c1ccc(NC2CCCCC2)c(N)c1 [Ferrostatin-1, reference compound] | 100% | 100% | 35% | 98% | 100% | 100% | 100% | 100% | 98% | 97% | 96% | 96%
